# Source: ChEMBL document CHEMBL1201862, “PubChem BioAssay data set” (2004)
#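 Following 48 hours of exposure in 96-well plates, responses at five concentrations were used to interpolate endpoints linearly. GI50 = concentration required for 50% inhibition of growth.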 Activity calls are given as the source filed them. Rule as the data show it: active = GI50 up to about 1.1 µM and inactive = higher.
# How the values were obtained:
# Assay in all cases: NCI tumour cell line growth inhibition, 48 h
# [1] = test system: SK-OV-3
# [2] = test system: MDA-MB-231
# [3] = test system: ACHN
# [4] = test system: OVCAR-4
# [5] = test system: IGROV-1
# [6] = test system: SW-620
# [7] = test system: TK-10
# [8] = test system: NCI-H460
# [9] = test system: 786-0
# [10] = test system: RXF 393
# [11] = test system: MCF7
# [12] = test system: SF-539
# [13] = test system: BT-549
# [14] = test system: K562
# [15] = test system: HT-29
# [16] = test system: OVCAR-5
# [17] = test system: T47D
# [18] = test system: NCI/ADR-RES
# [19] = test system: SK-MEL-2
# [20] = test system: SF-268
# [21] = test system: HOP-62
# [22] = test system: SK-MEL-5
# [23] = test system: RPMI-8226
# [24] = test system: HCT-116
# [25] = test system: SN12C
# [26] = test system: NCI-H23
# [27] = test system: UO-31
# [28] = test system: MDA-MB-435
# [29] = test system: DU-145
# [30] = test system: M14
# [31] = test system: OVCAR-3
# [32] = test system: HCT-15
# [33] = test system: SNB-19
# [34] = test system: A549
# [35] = test system: SR
# [36] = test system: U-251
# [37] = test system: SNB-75
# [38] = test system: NCI-H226
# [39] = test system: SK-MEL-28
# [40] = test system: OVCAR-8
# [41] = test system: KM12
# [42] = test system: EKVX
# [43] = test system: CCRF-CEM
# [44] = test system: HL-60
# [45] = test system: COLO 205
# [46] = test system: PC-3
# [47] = test system: HCC 2998
# [48] = test system: MDA-N
# [49] = test system: UACC-257
# [50] = test system: CAKI-1
# [51] = test system: A498
# [52] = test system: LOX IMVI
# [53] = test system: HOP-92
# [54] = test system: Hs-578T
# [55] = test system: SF-295
# [56] = test system: Malme-3M
# [57] = test system: NCI-H522
# [58] = test system: UACC-62
# [59] = test system: MOLT-4
smiles,measurement,setting,value
O=C(OCc1ccccc1)c1ccc(NCc2cc(O)ccc2O)cc1,GI50,[1],2.7 µM (inactive)
same,GI50,[2],1.91 µM (inactive)
same,GI50,[3],1.43 µM (inactive)
same,GI50,[4],1.39 µM (inactive)
same,GI50,[5],1.23 µM (inactive)
same,GI50,[6],1.67 µM (inactive)
same,GI50,[7],1.95 µM (inactive)
same,GI50,[8],3.42 µM (inactive)
same,GI50,[9],1.11 µM (active)
same,GI50,[10],1.07 µM (active)
same,GI50,[11],2.01 µM (inactive)
same,GI50,[12],0.902 µM (active)
same,GI50,[13],0.713 µM (active)
same,GI50,[14],1.29 µM (inactive)
same,GI50,[15],6.24 µM (inactive)
same,GI50,[16],3.85 µM (inactive)
same,GI50,[17],1.51 µM (inactive)
same,GI50,[18],1.47 µM (inactive)
same,GI50,[19],2.05 µM (inactive)
same,GI50,[20],1.36 µM (inactive)
same,GI50,[21],7.43 µM (inactive)
same,GI50,[22],1.52 µM (inactive)
same,GI50,[23],0.372 µM (active)
same,GI50,[24],1.51 µM (inactive)
same,GI50,[25],1.38 µM (inactive)
same,GI50,[26],1.53 µM (inactive)
same,GI50,[27],1.32 µM (inactive)
same,GI50,[28],1.58 µM (inactive)
same,GI50,[29],3.15 µM (inactive)
same,GI50,[30],1.91 µM (inactive)
same,GI50,[31],1 µM (active)
same,GI50,[32],1.03 µM
same,GI50,[33],2.85 µM (inactive)
same,GI50,[34],3.9 µM (inactive)
same,GI50,[35],0.247 µM (active)
same,GI50,[36],1.29 µM (inactive)
same,GI50,[37],0.906 µM (active)
same,GI50,[38],2.42 µM (inactive)
same,GI50,[39],1.63 µM (inactive)
same,GI50,[40],1.42 µM (inactive)
same,GI50,[41],1.52 µM (inactive)
same,GI50,[42],1.75 µM (inactive)
same,GI50,[43],0.308 µM (active)
same,GI50,[44],0.303 µM (active)
same,GI50,[45],1.47 µM (inactive)
same,GI50,[46],1.36 µM (inactive)
same,GI50,[47],2.15 µM (inactive)
same,GI50,[48],1.56 µM (inactive)
same,GI50,[49],1.6 µM (inactive)
same,GI50,[50],0.575 µM (active)
same,GI50,[51],1.09 µM (active)
same,GI50,[52],1.14 µM (inactive)
same,GI50,[53],0.867 µM (active)
same,GI50,[54],1.51 µM (inactive)
same,GI50,[55],6.12 µM (inactive)
same,GI50,[56],1.56 µM (inactive)
same,GI50,[57],0.35 µM (active)
same,GI50,[58],1.56 µM (inactive)
same,GI50,[59],0.535 µM (active)
C=C1CC(CNc2cc(Cl)nc(N)n2)C1,GI50,[1],44.9 µM (inactive)
same,GI50,[2],> 100 µM (inactive)
same,GI50,[3],> 100 µM (inactive)
same,GI50,[4],57.1 µM (inactive)
same,GI50,[5],> 100 µM (inactive)
same,GI50,[6],> 100 µM (inactive)
same,GI50,[7],> 100 µM (inactive)
same,GI50,[8],> 100 µM (inactive)
same,GI50,[9],> 100 µM (inactive)
same,GI50,[10],50.9 µM (inactive)
same,GI50,[11],> 100 µM (inactive)
same,GI50,[12],> 100 µM (inactive)
same,GI50,[13],77.3 µM (inactive)
same,GI50,[14],71.6 µM (inactive)
same,GI50,[15],> 100 µM (inactive)
same,GI50,[16],> 100 µM (inactive)
same,GI50,[17],> 10 µM (inactive)
same,GI50,[18],62.7 µM (inactive)
same,GI50,[19],> 100 µM (inactive)
same,GI50,[20],> 100 µM (inactive)
same,GI50,[21],> 100 µM (inactive)
same,GI50,[22],50.5 µM (inactive)
same,GI50,[23],49.9 µM (inactive)
same,GI50,[24],> 10 µM (inactive)
same,GI50,[25],> 100 µM (inactive)
same,GI50,[26],> 100 µM (inactive)
same,GI50,[27],> 100 µM (inactive)
same,GI50,[28],> 100 µM (inactive)
same,GI50,[29],> 100 µM (inactive)
same,GI50,[31],95.7 µM (inactive)
same,GI50,[32],67.8 µM
same,GI50,[33],> 100 µM (inactive)
same,GI50,[34],> 100 µM (inactive)
same,GI50,[35],> 100 µM (inactive)
same,GI50,[36],55.6 µM (inactive)
same,GI50,[37],> 100 µM (inactive)
same,GI50,[38],54.2 µM (inactive)
same,GI50,[39],> 100 µM (inactive)
same,GI50,[40],> 100 µM (inactive)
same,GI50,[41],> 100 µM (inactive)
same,GI50,[42],23.1 µM (inactive)
same,GI50,[43],> 100 µM (inactive)
same,GI50,[44],> 100 µM (inactive)
same,GI50,[45],> 100 µM (inactive)
same,GI50,[46],> 100 µM (inactive)
same,GI50,[47],> 100 µM (inactive)
same,GI50,[48],> 100 µM (inactive)
same,GI50,[49],39.6 µM (inactive)
same,GI50,[50],74.5 µM (inactive)
same,GI50,[51],1.99 µM (inactive)
same,GI50,[52],> 100 µM (inactive)
same,GI50,[53],78.2 µM (inactive)
same,GI50,[54],51.4 µM (inactive)
same,GI50,[55],> 100 µM (inactive)
same,GI50,[56],> 100 µM (inactive)
same,GI50,[57],96.8 µM (inactive)
same,GI50,[58],> 100 µM (inactive)
same,GI50,[59],> 100 µM (inactive)
